One experiment relates to Kuramochi. The experiment in a line: drug sensitivity score (DSS) from 5-point dose-response viability curve (DSS (area-under-curve based score)); higher = more sensitive (stronger growth inhibition or killing); extreme values may be limits of the assay. The note with it: exposure time: 72 h; concentration range: 5 concentrations over 10,000-fold range. The method, boiled down: (§1)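 Drug sensitivity scores were calculated in Breeze software for each cell line and drug pair; higher scores indicate more sensitivity. A score of zero indicates no response. The underlying assay used 384-well plates: drugs were placed by an Echo 550 acoustic dispenser at five concentrations spanning a 10,000-fold range, 1,500 ovarian cancer or normal ovarian cells were added per well, and cells were kept 3 days at 37°C, 5% CO2. Viability was then measured with CellTiter-Glo luminescence on a PHERAstar FS.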
As to `CCNC(=O)c1noc(-c2cc(C(C)C)c(O)cc2O)c1-c1ccc(CN2CCOCC2)cc1` [Luminespib], the drug sensitivity score worked out at 14.4. In turn, `O=C(O)CC[C@H]1CC[C@@](c2cc(F)ccc2F)(S(=O)(=O)c2ccc(Cl)cc2)CC1` [MK-0752] showed a drug sensitivity score of 0. Turning to `NC1(c2ccc(-c3nc4ccn5c(=O)[nH]nc5c4cc3-c3ccccc3)cc2)CCC1` [MK-2206], the drug sensitivity score was 4.4.

For the compound `O=C(c1cccc(Cl)c1F)N1CCN(Cc2cccc(Nc3nccs3)n2)CC1` [MK-8745], the drug sensitivity score was 0.4. The compound `Cn1cc(-c2cnn3c(N)c(Br)c([C@@H]4CCCNC4)nc23)cn1` [MK-8776] had a drug sensitivity score of 0. The compound `Cc1cnc(-c2ccccc2C(C)C)nc1NCc1ccc(-n2ccnn2)cc1` [ML323] showed a drug sensitivity score of 0. With `O=C(CCNC(=O)c1ccc(OC(F)(F)F)cc1)N[C@@H]1CCCc2ccccc21` [ML390], the drug sensitivity score is 5.3. With `O=C(Nc1cccc(NC(=O)c2cccc(O)c2O)c1)c1cccc(O)c1O` [MST-312], the drug sensitivity score was 5.5. For the compound `CNC(=O)[C@@H](NC(=O)[C@H](CC(C)C)[C@H](O)C(=O)NO)C(C)(C)C` [Marimastat], the drug sensitivity score was found to be 0. `Cc1ccc(NC(=O)c2ccc(CN3CCN(C)CC3)cc2)cc1Nc1nc(-c2cccnc2)cs1` [Masitinib]: the drug sensitivity score is 3.4. In turn, `CC(=O)O[C@]1(C(C)=O)CC[C@H]2[C@@H]3C=C(C)C4=CC(=O)CC[C@]4(C)[C@H]3CC[C@@]21C` [Megestrol acetate] gave a drug sensitivity score of 0. With `CCN(CC)CCCC(C)Nc1c2ccc(Cl)cc2nc2ccc(OC)cc12` (stereo not drawn) [Mepacrine], the drug sensitivity score was found to be 13.2. `S=c1[nH]cnc2nc[nH]c12` [Mercaptopurine] showed a drug sensitivity score of 7.7. For the compound `Cc1ccc(C(=O)Nc2ccc(Oc3cc4cnn(C)c4cc3-c3cn[nH]c3)c(F)c2)c(=O)n1-c1ccc(F)cc1` [Merestinib], the drug sensitivity score turned out to be 1.1.

Compound `CN(C)C(=N)NC(=N)N` [Metformin] showed a drug sensitivity score of 0. `CN(Cc1cnc2nc(N)nc(N)c2n1)c1ccc(C(=O)N[C@@H](CCC(=O)O)C(=O)O)cc1` [Methotrexate]: the drug sensitivity score came out at 13.

For the next experiment, the system named is OVCAR8. The experiment is described as above. To be noted: exposure time: 72 h; concentration range: 5 concentrations over 10,000-fold range. The method, boiled down: as §1
As for `Nc1cc(COc2c(Cl)cc(C[C@H](N)C(=O)O)cc2Cl)c2oc(-c3ccccc3)nc2c1` [JPH203], the drug sensitivity score came to 0. For the compound `CC(C)NC(=O)COc1cccc(-c2nc(Nc3ccc4[nH]ncc4c3)c3ccccc3n2)c1` [KD025], the drug sensitivity score was found to be 8.2. Same read-out and setting: to `CS(=O)(=O)CCNCc1ccc(-c2ccc3ncnc(Nc4ccc(OCc5cccc(F)c5)c(Cl)c4)c3c2)o1` [Lapatinib] belongs 0; to `O=C(Nc1cnn2ccc(N3CCC[C@@H]3c3cc(F)ccc3F)nc12)N1CC[C@H](O)C1` [Larotrectinib], 0. Turning to `Oc1ccc2c(c1)CC[C@H](c1ccccc1)[C@@H]2c1ccc(OCCN2CCCC2)cc1` [Lasofoxifene], the drug sensitivity score was 0.

In the case of `Nc1cccc2c1CN(C1CCC(=O)NC1=O)C2=O` (stereo not drawn) [Lenalidomide], the drug sensitivity score was 0. In turn, `COc1cc2nccc(Oc3ccc(NC(=O)NC4CC4)c(Cl)c3)c2cc1C(N)=O` [Lenvatinib] had a drug sensitivity score of 0. On to `N#Cc1ccc(C(c2ccc(C#N)cc2)n2cncn2)cc1` [Letrozole], for which the drug sensitivity score turned out to be 0. Turning to `Cc1ccc(F)c(NC(=O)Nc2ccc(-c3cccc4[nH]nc(N)c34)cc2)c1` [Linifanib], the drug sensitivity score turned out to be 0.

In turn, `C[C@]1(O)C[C@@H](c2nc(-c3ccc4ccc(-c5ccccc5)nc4c3)c3c(N)nccn32)C1` [Linsitinib] returned a drug sensitivity score of 0.3.

As to `CCNCCS(=O)(=O)NC[C@@]1(c2ccccc2)SC(NC(=O)C(C)(C)C)=NN1C(=O)C(C)(C)C` [Litronesib], the drug sensitivity score worked out at 18.4. The same measure, in the same setting: next, `Nc1nc(OCc2cc(Br)cs2)c2[nH]cnc2n1` [Lomeguatrib]: 0; `NC(=O)N1CCC(CC(=O)N2CCC([C@H]3c4ncc(Br)cc4CCc4cc(Cl)cc(Br)c43)CC2)CC1` [Lonafarnib]: 9.4; `Cc1c(F)cc(C(=O)NC2CC2)cc1-c1ccc(C(=O)NCC(C)(C)C)cn1` [Losmapimod]: 0.2. In turn, `CC[C@H](C)C(=O)O[C@H]1C[C@@H](C)C=C2C=C[C@H](C)[C@H](CC[C@@H]3C[C@@H](O)CC(=O)O3)[C@H]21` [Lovastatin] gave a drug sensitivity score of 1.7. On the same count and under the same terms, next, `CNC(=O)c1cccc2cc(Oc3ccnc4cc(OCC5(N)CC5)c(OC)cc34)ccc12` [Lucitanib]: 2.3. For the compound `CCNC(=O)c1noc(-c2cc(C(C)C)c(O)cc2O)c1-c1ccc(CN2CCOCC2)cc1` [Luminespib], the drug sensitivity score is 18.8. Still for that read-out and setting: to `O=C(O)CC[C@H]1CC[C@@](c2cc(F)ccc2F)(S(=O)(=O)c2ccc(Cl)cc2)CC1` [MK-0752] belongs 0. For the compound `NC1(c2ccc(-c3nc4ccn5c(=O)[nH]nc5c4cc3-c3ccccc3)cc2)CCC1` [MK-2206], the drug sensitivity score is 0. `O=C(c1cccc(Cl)c1F)N1CCN(Cc2cccc(Nc3nccs3)n2)CC1` [MK-8745] had a drug sensitivity score of 8. `Cn1cc(-c2cnn3c(N)c(Br)c([C@@H]4CCCNC4)nc23)cn1` [MK-8776]: the drug sensitivity score is 1. Same read-out and setting: to `Cc1cnc(-c2ccccc2C(C)C)nc1NCc1ccc(-n2ccnn2)cc1` [ML323] belongs 0.

Consider `O=C(CCNC(=O)c1ccc(OC(F)(F)F)cc1)N[C@@H]1CCCc2ccccc21` [ML390], for which the drug sensitivity score came to 4.9. The same measure, in the same setting: to `O=C(Nc1cccc(NC(=O)c2cccc(O)c2O)c1)c1cccc(O)c1O` [MST-312] belongs 13.9; to `CNC(=O)[C@@H](NC(=O)[C@H](CC(C)C)[C@H](O)C(=O)NO)C(C)(C)C` [Marimastat], 0.1. On to `Cc1ccc(NC(=O)c2ccc(CN3CCN(C)CC3)cc2)cc1Nc1nc(-c2cccnc2)cs1` [Masitinib], for which the drug sensitivity score turned out to be 4.1. `CC(=O)O[C@]1(C(C)=O)CC[C@H]2[C@@H]3C=C(C)C4=CC(=O)CC[C@]4(C)[C@H]3CC[C@@]21C` [Megestrol acetate] returned a drug sensitivity score of 0.4. For `CCN(CC)CCCC(C)Nc1c2ccc(Cl)cc2nc2ccc(OC)cc12` (stereo not drawn) [Mepacrine], the drug sensitivity score was found to be 12.1. Turning to `S=c1[nH]cnc2nc[nH]c12` [Mercaptopurine], the drug sensitivity score turned out to be 8.6.

On to `Cc1ccc(C(=O)Nc2ccc(Oc3cc4cnn(C)c4cc3-c3cn[nH]c3)c(F)c2)c(=O)n1-c1ccc(F)cc1` [Merestinib], for which the drug sensitivity score was 0.1. The compound `CN(C)C(=N)NC(=N)N` [Metformin] displayed a drug sensitivity score of 0.

`CN(Cc1cnc2nc(N)nc(N)c2n1)c1ccc(C(=O)N[C@@H](CCC(=O)O)C(=O)O)cc1` [Methotrexate] came in with a drug sensitivity score of 12.3.

For the origin of these results see the supplement of paper PMC11616607.
